Data on three compounds can be found in the kinase profiling compilation of Christmann-Franck et al. (2016).

Sequence of ADRBK1 (human) (P25098 whole entry, looked up): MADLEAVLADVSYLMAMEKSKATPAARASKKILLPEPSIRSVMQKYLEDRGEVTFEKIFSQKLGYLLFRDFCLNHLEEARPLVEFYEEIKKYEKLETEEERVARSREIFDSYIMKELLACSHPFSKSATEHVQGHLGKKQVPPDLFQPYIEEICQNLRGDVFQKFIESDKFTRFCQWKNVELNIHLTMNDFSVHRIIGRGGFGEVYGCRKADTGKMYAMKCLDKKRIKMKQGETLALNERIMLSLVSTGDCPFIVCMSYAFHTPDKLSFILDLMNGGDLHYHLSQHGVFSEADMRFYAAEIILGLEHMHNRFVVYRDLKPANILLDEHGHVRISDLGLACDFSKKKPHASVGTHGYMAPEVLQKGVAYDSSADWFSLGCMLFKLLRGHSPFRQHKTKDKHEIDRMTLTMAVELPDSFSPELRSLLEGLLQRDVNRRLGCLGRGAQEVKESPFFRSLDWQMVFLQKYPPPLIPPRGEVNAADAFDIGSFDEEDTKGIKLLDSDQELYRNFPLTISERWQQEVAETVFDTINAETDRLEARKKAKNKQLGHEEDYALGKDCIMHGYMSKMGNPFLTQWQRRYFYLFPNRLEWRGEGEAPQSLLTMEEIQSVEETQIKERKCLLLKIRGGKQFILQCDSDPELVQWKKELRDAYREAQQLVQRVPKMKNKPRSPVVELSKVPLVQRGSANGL

The first experiment deals with HCK (human) (UniProt P08631). The experiment is described as follows: radiometric filter-binding kinase assay, Kinase HotSpot. The note with it: compound 0.5 µM; ATP 10 µM.
By residual activity is commonly meant the signal under treatment as a percentage of the control signal. Take `CCN(CC)CCCCN1c2ccccc2Oc2ccc(Cl)cc21`: the residual activity turned out to be 105%.

With `CC(=O)O/N=C1\C(=C2\C(=O)Nc3cc(Br)ccc32)Nc2ccccc21`, the residual activity is 43.1%.

In the case of `O=C(O)/C=C/c1cc(Br)c(Br)c(Br)c1Br`, the residual activity came out at 99.9%.

A further experiment deals with EPHA3 (human) (UniProt P29320). Described as above. The settings on record: compound 0.5 µM; ATP 10 µM.
Sequence of EPHA3 (human) (P29320 whole entry, looked up): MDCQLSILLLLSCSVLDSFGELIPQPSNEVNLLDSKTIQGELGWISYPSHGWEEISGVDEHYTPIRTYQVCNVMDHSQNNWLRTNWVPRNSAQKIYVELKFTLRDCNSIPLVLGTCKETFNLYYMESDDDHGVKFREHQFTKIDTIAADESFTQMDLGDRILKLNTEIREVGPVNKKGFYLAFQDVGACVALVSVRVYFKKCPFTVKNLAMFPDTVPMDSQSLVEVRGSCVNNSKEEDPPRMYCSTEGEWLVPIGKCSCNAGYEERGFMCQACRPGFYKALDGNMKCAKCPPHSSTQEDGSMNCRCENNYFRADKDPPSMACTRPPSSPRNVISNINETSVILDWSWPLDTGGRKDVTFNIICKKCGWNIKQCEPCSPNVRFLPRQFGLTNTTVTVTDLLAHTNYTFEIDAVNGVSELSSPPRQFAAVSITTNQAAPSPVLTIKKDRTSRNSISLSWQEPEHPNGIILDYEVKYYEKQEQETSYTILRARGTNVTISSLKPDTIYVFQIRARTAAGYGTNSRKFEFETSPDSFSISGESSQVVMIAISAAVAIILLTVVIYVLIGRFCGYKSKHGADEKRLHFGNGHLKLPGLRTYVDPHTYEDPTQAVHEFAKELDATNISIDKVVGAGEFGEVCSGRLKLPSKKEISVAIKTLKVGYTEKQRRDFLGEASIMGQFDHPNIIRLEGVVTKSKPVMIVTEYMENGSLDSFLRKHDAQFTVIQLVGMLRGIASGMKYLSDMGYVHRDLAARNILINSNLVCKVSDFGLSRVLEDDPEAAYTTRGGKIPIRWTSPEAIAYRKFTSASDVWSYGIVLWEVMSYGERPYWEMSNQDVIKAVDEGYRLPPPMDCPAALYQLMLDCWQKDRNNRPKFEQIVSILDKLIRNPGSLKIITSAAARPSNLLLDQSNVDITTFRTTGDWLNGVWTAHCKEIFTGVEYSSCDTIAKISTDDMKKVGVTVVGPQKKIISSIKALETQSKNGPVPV
In the case of `CCN(CC)CCCCN1c2ccccc2Oc2ccc(Cl)cc21`, the residual activity was determined as 101%.

Consider `CC(=O)O/N=C1\C(=C2\C(=O)Nc3cc(Br)ccc32)Nc2ccccc21`, for which the residual activity was determined as 88.2%.

In the case of `O=C(O)/C=C/c1cc(Br)c(Br)c(Br)c1Br`, the residual activity came out at 92.3%.

The next experiment concerns the target GRK4 (human) (UniProt P32298). The experiment is described as above. The settings on record: compound 0.5 µM; ATP 10 µM.
With `CCN(CC)CCCCN1c2ccccc2Oc2ccc(Cl)cc21`, the residual activity came out at 102%.

For the compound `CC(=O)O/N=C1\C(=C2\C(=O)Nc3cc(Br)ccc32)Nc2ccccc21`, the residual activity came to 97.6%.

On to `O=C(O)/C=C/c1cc(Br)c(Br)c(Br)c1Br`, for which the residual activity was 101%.

Another experiment deals with AURKA (human) (UniProt O14965). The description is as above. The note with it: compound 0.5 µM; ATP 10 µM.
Take `CCN(CC)CCCCN1c2ccccc2Oc2ccc(Cl)cc21`: the residual activity was determined as 93.3%.

For the compound `CC(=O)O/N=C1\C(=C2\C(=O)Nc3cc(Br)ccc32)Nc2ccccc21`, the residual activity worked out at 55.4%.

Consider `O=C(O)/C=C/c1cc(Br)c(Br)c(Br)c1Br`, for which the residual activity was determined as 77.2%.

A further experiment deals with RPS6KA2 KD1 KD2 (human) (UniProt Q15349). The experiment is described as above. The note with it: compound 0.5 µM; ATP 10 µM.
Sequence of RPS6KA2 KD1 KD2 (human) (Q15349 whole entry, looked up): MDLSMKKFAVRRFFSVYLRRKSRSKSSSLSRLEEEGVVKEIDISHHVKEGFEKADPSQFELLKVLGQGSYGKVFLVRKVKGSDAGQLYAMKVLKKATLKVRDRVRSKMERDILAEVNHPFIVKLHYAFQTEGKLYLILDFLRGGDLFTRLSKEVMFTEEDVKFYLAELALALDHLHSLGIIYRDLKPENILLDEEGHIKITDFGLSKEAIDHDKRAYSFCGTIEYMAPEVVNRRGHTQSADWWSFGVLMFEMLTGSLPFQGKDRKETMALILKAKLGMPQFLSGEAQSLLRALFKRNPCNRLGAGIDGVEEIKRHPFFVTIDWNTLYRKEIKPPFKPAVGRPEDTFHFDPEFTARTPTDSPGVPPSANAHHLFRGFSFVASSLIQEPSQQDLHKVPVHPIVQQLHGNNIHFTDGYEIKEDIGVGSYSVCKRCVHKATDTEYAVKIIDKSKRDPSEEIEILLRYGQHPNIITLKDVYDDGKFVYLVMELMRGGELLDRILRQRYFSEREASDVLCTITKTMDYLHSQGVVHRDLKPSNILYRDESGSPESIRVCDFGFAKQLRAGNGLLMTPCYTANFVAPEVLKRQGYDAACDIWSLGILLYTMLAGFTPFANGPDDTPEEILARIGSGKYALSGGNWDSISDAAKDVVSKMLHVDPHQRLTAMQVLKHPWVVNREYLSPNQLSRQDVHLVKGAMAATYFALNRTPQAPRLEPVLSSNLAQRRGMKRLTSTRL
Turning to `CCN(CC)CCCCN1c2ccccc2Oc2ccc(Cl)cc21`, the residual activity was 88%.

As for `CC(=O)O/N=C1\C(=C2\C(=O)Nc3cc(Br)ccc32)Nc2ccccc21`, the residual activity was determined as 51%.

`O=C(O)/C=C/c1cc(Br)c(Br)c(Br)c1Br`: the residual activity came to 75.8%.

The target of a further experiment is EPHA5 (human) (UniProt P54756). The description is as above. The note with it: compound 0.5 µM; ATP 10 µM.
In the case of `CCN(CC)CCCCN1c2ccccc2Oc2ccc(Cl)cc21`, the residual activity amounted to 109%.

`CC(=O)O/N=C1\C(=C2\C(=O)Nc3cc(Br)ccc32)Nc2ccccc21`: the residual activity worked out at 102%.

As to `O=C(O)/C=C/c1cc(Br)c(Br)c(Br)c1Br`, the residual activity was found to be 88.7%.

The target in a further experiment is HIPK4 (human) (UniProt Q8NE63). The experiment is described as above. The note with it: compound 0.5 µM; ATP 10 µM.
Regarding `CCN(CC)CCCCN1c2ccccc2Oc2ccc(Cl)cc21`, the residual activity came out at 99.2%.

In the case of `CC(=O)O/N=C1\C(=C2\C(=O)Nc3cc(Br)ccc32)Nc2ccccc21`, the residual activity was determined as 95.5%.

`O=C(O)/C=C/c1cc(Br)c(Br)c(Br)c1Br`: the residual activity was 102%.

In a further experiment the target is FRK (human) (UniProt P42685). Described as above. The settings on record: compound 0.5 µM; ATP 10 µM.
Consider `CCN(CC)CCCCN1c2ccccc2Oc2ccc(Cl)cc21`, for which the residual activity is 98.4%.

As to `CC(=O)O/N=C1\C(=C2\C(=O)Nc3cc(Br)ccc32)Nc2ccccc21`, the residual activity was determined as 51.2%.

With `O=C(O)/C=C/c1cc(Br)c(Br)c(Br)c1Br`, the residual activity was determined as 102%.

For another experiment, the target named is MUSK (human) (UniProt O15146). The description is as above. The note with it: compound 0.5 µM; ATP 10 µM.
Sequence of MUSK (human) (O15146 whole entry, looked up): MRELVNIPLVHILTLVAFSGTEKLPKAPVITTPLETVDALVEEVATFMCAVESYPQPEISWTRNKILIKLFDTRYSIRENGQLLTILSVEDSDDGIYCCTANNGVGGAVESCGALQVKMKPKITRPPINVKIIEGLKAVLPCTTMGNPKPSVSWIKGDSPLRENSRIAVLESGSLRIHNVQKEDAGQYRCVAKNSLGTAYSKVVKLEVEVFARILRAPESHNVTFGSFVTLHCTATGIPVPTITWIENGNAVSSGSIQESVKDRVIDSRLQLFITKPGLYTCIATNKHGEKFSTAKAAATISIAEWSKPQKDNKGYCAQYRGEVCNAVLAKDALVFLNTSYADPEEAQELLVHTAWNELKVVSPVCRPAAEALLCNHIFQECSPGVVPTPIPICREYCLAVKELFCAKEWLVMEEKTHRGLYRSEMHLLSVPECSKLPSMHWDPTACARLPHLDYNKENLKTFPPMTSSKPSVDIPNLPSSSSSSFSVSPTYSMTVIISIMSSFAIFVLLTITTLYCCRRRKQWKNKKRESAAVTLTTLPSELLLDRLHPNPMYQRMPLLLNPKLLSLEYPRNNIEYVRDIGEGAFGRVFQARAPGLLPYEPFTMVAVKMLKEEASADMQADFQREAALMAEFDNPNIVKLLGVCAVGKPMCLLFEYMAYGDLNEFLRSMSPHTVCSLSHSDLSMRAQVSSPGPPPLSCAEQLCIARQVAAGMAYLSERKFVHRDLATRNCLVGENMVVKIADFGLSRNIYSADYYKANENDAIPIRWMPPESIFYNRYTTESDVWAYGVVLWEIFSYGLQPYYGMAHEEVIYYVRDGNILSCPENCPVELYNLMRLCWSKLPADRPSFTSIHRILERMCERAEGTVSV
On to `CCN(CC)CCCCN1c2ccccc2Oc2ccc(Cl)cc21`, for which the residual activity was 103%.

Consider `CC(=O)O/N=C1\C(=C2\C(=O)Nc3cc(Br)ccc32)Nc2ccccc21`, for which the residual activity was determined as 68.5%.

For `O=C(O)/C=C/c1cc(Br)c(Br)c(Br)c1Br`, the residual activity amounted to 53.6%.

A further experiment concerns the target CAMKK2 (human) (UniProt Q96RR4). Described as above. The settings on record: compound 0.5 µM; ATP 10 µM.
Consider `CCN(CC)CCCCN1c2ccccc2Oc2ccc(Cl)cc21`, for which the residual activity came to 105%.

In the case of `CC(=O)O/N=C1\C(=C2\C(=O)Nc3cc(Br)ccc32)Nc2ccccc21`, the residual activity stood at 102%.

For `O=C(O)/C=C/c1cc(Br)c(Br)c(Br)c1Br`, the residual activity was determined as 79.6%.

The target in another experiment is MARK2 (human) (UniProt Q7KZI7). The description is as above. The note with it: compound 0.5 µM; ATP 10 µM.
Turning to `CCN(CC)CCCCN1c2ccccc2Oc2ccc(Cl)cc21`, the residual activity amounted to 86.1%.

With `CC(=O)O/N=C1\C(=C2\C(=O)Nc3cc(Br)ccc32)Nc2ccccc21`, the residual activity came out at 74.9%.

As for `O=C(O)/C=C/c1cc(Br)c(Br)c(Br)c1Br`, the residual activity was determined as 82.1%.

Another experiment addresses GSK3B (human) (UniProt P49841). The description is as above. The note with it: compound 0.5 µM; ATP 10 µM.
Take `CCN(CC)CCCCN1c2ccccc2Oc2ccc(Cl)cc21`: the residual activity was determined as 113%.

`CC(=O)O/N=C1\C(=C2\C(=O)Nc3cc(Br)ccc32)Nc2ccccc21`: the residual activity amounted to 14.3%.

Turning to `O=C(O)/C=C/c1cc(Br)c(Br)c(Br)c1Br`, the residual activity was found to be 105%.

For a further experiment, the target named is PHKG2 (human) (UniProt P15735). The experiment is described as above. The note with it: compound 0.5 µM; ATP 10 µM.
Sequence of PHKG2 (human) (P15735 whole entry, looked up): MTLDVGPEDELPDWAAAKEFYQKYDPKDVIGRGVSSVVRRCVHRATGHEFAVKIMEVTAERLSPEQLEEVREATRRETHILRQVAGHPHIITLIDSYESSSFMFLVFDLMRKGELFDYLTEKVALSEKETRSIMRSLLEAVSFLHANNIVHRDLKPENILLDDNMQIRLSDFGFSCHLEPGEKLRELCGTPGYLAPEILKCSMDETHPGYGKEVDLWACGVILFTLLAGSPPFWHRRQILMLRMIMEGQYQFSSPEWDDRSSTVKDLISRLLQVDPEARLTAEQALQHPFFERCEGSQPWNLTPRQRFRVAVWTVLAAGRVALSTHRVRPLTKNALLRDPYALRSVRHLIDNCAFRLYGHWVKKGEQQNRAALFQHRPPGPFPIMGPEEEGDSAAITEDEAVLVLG
On to `CCN(CC)CCCCN1c2ccccc2Oc2ccc(Cl)cc21`, for which the residual activity was 110%.

Turning to `CC(=O)O/N=C1\C(=C2\C(=O)Nc3cc(Br)ccc32)Nc2ccccc21`, the residual activity amounted to 96.6%.

For `O=C(O)/C=C/c1cc(Br)c(Br)c(Br)c1Br`, the residual activity turned out to be 98.9%.

In another experiment the target is MAPK10 (human) (UniProt P53779). The experiment is described as above. The settings on record: compound 0.5 µM; ATP 10 µM.
As for `CCN(CC)CCCCN1c2ccccc2Oc2ccc(Cl)cc21`, the residual activity stood at 104%.

For `CC(=O)O/N=C1\C(=C2\C(=O)Nc3cc(Br)ccc32)Nc2ccccc21`, the residual activity is 83%.

Take `O=C(O)/C=C/c1cc(Br)c(Br)c(Br)c1Br`: the residual activity is 96.3%.

Another experiment addresses CSNK1A1 (human) (UniProt P48729). The experiment is described as above. The settings on record: compound 0.5 µM; ATP 10 µM.
For `CCN(CC)CCCCN1c2ccccc2Oc2ccc(Cl)cc21`, the residual activity is 96.1%.

As for `CC(=O)O/N=C1\C(=C2\C(=O)Nc3cc(Br)ccc32)Nc2ccccc21`, the residual activity was found to be 68.5%.

Regarding `O=C(O)/C=C/c1cc(Br)c(Br)c(Br)c1Br`, the residual activity was 79.3%.

Another experiment has as its target MAP3K8 (human) (UniProt P41279). Described as above. The note with it: compound 0.5 µM; ATP 10 µM.
Turning to `CCN(CC)CCCCN1c2ccccc2Oc2ccc(Cl)cc21`, the residual activity was found to be 94.7%.

Regarding `CC(=O)O/N=C1\C(=C2\C(=O)Nc3cc(Br)ccc32)Nc2ccccc21`, the residual activity stood at 104%.

Consider `O=C(O)/C=C/c1cc(Br)c(Br)c(Br)c1Br`, for which the residual activity is 83%.

The target in a further experiment is PAK6 (human) (UniProt Q9NQU5). The experiment is described as above. The settings on record: compound 0.5 µM; ATP 10 µM.
Sequence of PAK6 (human) (Q9NQU5 whole entry, looked up): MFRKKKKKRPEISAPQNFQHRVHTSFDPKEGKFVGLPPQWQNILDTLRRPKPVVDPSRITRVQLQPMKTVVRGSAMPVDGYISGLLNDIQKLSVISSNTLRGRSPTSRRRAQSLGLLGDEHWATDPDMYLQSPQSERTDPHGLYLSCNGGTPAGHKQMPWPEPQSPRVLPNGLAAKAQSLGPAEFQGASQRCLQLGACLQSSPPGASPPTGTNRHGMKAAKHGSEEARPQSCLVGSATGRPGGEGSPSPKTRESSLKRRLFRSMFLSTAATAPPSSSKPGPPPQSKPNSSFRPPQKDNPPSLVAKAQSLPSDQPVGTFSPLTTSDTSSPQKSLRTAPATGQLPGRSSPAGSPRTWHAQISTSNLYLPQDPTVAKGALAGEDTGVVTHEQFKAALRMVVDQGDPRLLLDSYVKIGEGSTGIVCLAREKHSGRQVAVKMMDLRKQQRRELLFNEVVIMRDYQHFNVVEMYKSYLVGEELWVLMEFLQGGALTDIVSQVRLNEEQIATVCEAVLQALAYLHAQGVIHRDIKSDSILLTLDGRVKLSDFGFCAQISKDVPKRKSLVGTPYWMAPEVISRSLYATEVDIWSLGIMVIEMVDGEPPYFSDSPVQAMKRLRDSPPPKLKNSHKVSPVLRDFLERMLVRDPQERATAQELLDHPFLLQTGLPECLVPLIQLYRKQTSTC
`CCN(CC)CCCCN1c2ccccc2Oc2ccc(Cl)cc21`: the residual activity was 102%.

As to `CC(=O)O/N=C1\C(=C2\C(=O)Nc3cc(Br)ccc32)Nc2ccccc21`, the residual activity was found to be 74.8%.

In the case of `O=C(O)/C=C/c1cc(Br)c(Br)c(Br)c1Br`, the residual activity is 110%.

For another experiment, the target named is SRPK1 (human) (UniProt Q96SB4). Described as above. The settings on record: compound 0.5 µM; ATP 10 µM.
Sequence of SRPK1 (human) (Q96SB4 whole entry, looked up): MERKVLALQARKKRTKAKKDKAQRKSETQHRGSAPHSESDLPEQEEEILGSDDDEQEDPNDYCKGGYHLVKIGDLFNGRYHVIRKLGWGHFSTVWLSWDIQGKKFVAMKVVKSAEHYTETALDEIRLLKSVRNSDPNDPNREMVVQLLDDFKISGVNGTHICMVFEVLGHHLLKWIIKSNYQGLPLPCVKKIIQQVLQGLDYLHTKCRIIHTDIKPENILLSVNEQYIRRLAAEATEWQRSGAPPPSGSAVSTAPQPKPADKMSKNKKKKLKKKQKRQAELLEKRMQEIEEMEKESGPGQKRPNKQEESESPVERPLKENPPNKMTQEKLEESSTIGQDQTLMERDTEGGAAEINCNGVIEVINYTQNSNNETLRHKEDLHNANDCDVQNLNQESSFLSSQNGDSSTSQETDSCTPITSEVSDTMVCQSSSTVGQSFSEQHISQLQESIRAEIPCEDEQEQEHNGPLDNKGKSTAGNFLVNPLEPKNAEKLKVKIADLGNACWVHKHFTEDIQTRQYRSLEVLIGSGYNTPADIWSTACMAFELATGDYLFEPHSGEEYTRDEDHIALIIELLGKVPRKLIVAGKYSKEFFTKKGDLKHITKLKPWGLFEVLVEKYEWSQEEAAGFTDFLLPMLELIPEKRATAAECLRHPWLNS
Regarding `CCN(CC)CCCCN1c2ccccc2Oc2ccc(Cl)cc21`, the residual activity was found to be 97.2%.

Consider `CC(=O)O/N=C1\C(=C2\C(=O)Nc3cc(Br)ccc32)Nc2ccccc21`, for which the residual activity turned out to be 96.7%.

On to `O=C(O)/C=C/c1cc(Br)c(Br)c(Br)c1Br`, for which the residual activity stood at 79.3%.

For the next experiment, the target named is CAMK1G (human) (UniProt Q96NX5). Described as above. The settings on record: compound 0.5 µM; ATP 10 µM.
As for `CCN(CC)CCCCN1c2ccccc2Oc2ccc(Cl)cc21`, the residual activity worked out at 99.2%.

Consider `CC(=O)O/N=C1\C(=C2\C(=O)Nc3cc(Br)ccc32)Nc2ccccc21`, for which the residual activity worked out at 101%.

In the case of `O=C(O)/C=C/c1cc(Br)c(Br)c(Br)c1Br`, the residual activity amounted to 94.1%.

A further experiment concerns the target ADRBK1 (human) (UniProt P25098). The description is as above. The note with it: compound 0.5 µM; ATP 10 µM.
`CCN(CC)CCCCN1c2ccccc2Oc2ccc(Cl)cc21`: the residual activity turned out to be 96.5%.

With `CC(=O)O/N=C1\C(=C2\C(=O)Nc3cc(Br)ccc32)Nc2ccccc21`, the residual activity came out at 108%.

As to `O=C(O)/C=C/c1cc(Br)c(Br)c(Br)c1Br`, the residual activity amounted to 97.9%.

A further experiment addresses STK39 (human) (UniProt Q9UEW8). Described as above. The note with it: compound 0.5 µM; ATP 10 µM.
As for `CCN(CC)CCCCN1c2ccccc2Oc2ccc(Cl)cc21`, the residual activity amounted to 83.5%.

Turning to `CC(=O)O/N=C1\C(=C2\C(=O)Nc3cc(Br)ccc32)Nc2ccccc21`, the residual activity was found to be 105%.

For the compound `O=C(O)/C=C/c1cc(Br)c(Br)c(Br)c1Br`, the residual activity worked out at 97.9%.
